Read-outs that look alike come from different tables or passages of the source.
Key:
[1] = test system: Escherichia coli IFO 3972; assay: MIC by liquid medium dilution technique, 96-well microplate, gram-negative bacteria; assay type: cell-based; settings: for Antimicrobial Activities (MIC) E. coli: IFO 3972, 24 h
Protocol: (§1) Regarding the antimicrobial peptide (samples 1 to 20) related to the present invention, the antimicrobial activities (minimum inhibitory concentration: MIC) with respect to gram-negative bacteria (Escherichia coli IFO 3972) and gram-positive bacteria (Staphylococcus aureus IFO 12732) were determined by a liquid medium dilution technique using a 96-well microplate.
(§2) First, a drug (synthesized polypeptide) solution having a concentration of 40 times of the highest test concentration was prepared using sterile distilled water, and liquid-bouillon mediums (more specifically, “Mueller Hinton Broth” manufactured by DIFCO) including cation and having drug concentrations of 100, 50, 25, 12.5, 6.3, 3.1, 1.6 and 0.8 μM were respectively produced. The cation included was prepared as follows: dissolving 3.68 g of CaCl2.2H2O in 100 mL of purified water (10 mg.Ca^2+/mL), and thereafter adding 500 μL thereof into 100 mL of Mueller Hinton Broth; and dissolving 8.36 g of MgCl2.6H2O in 100 mL of purified water (10 mg.Mg^2+/mL), and thereafter adding 250 μL thereof into 100 mL of Mueller Hinton Broth. Thereafter, the produced liquid-bouillon mediums including the drug of each concentration were then fed to the 96-well microplate at […] a time.
(§3) At the same time, test bacteria cultured for 18 hours at 37° C. on an agar plate (“Muller Hinton Agar” manufactured by DIFCO) were gathered by scratching with a loop, and then suspended in a sterilized physiological saline. Bacterial suspension 5 μL prepared at an equivalent of 2×10^7 cells/mL was respectively inoculated (number of bacteria to be tested: approximately 1×10^6 cells/mL) onto the drug solution and fed to each well of the above-described microplate. After inoculation, the microplate was then incubated in an incubator at 37° C., and the presence of bacteria was evaluated based on the turbidity 24 hours later. The minimum drug concentration (polypeptide concentration), in which an increased in turbidity caused by bacteria was not detected at the time of measurement, was defined as MIC (minimum inhibitory concentration) (unit: μM) in the present embodiment. In addition, MIC were determined in the same manner using polymyxin B as a comparison.

[2] = test system: S. aureus; assay type: cell-based, Staphylococcus aureus
Protocol: as §2, §3
Next, the antimicrobial activities (MIC) against gram-positive bacteria (S. aureus) in the presence of serum were tested with the same method as Example 2. […] Thereafter, the produced liquid-bouillon mediums including the drug and the serum of each concentration were then fed to the 96-well microplate at […] a time, and MIC were determined by the method same as Example 2. Sample X in the table is a mixture of sample 1 and sample 16 based on a mass ratio of 1:1. “-” in the table indicate “untested”.

[3] = test system: Aspergillus niger IFO 6341; assay type: cell-based
Protocol: (§4) Antimicrobial activity against fungi (Aspergillus niger IFO 6341) of the antimicrobial peptides related to the present invention was tested according to a general antimycotic susceptibility test as follows.
More specifically, a slant or plate medium (“potato dextrose agar” medium manufactured by DIFCO was used typically) adhered with spores (conidia) was prepared in advance, and A. niger (IFO 6341; JIS test strain) were gathered from the medium by scratching the medium surface 4 to 5 times from bottom up with a 1 μL disposable loop and suspended in 25 mL of PBS (free of Mg, Ca) solution containing 0.05% of surfactant (Tween® 80). Thereafter, pipetting was performed using a measuring pipette or the like such that clusters of black spores disappeared completely. The spore concentration of the spore suspension prepared by such method was determined using a hemocytometer while the above-described surfactant containing PBS solution was being diluted accordingly, thereby deriving a spore suspension having a spore concentration of approximately 2.5×10^5 spores/mL. […]
Next, a test fungus suspension was prepared by adding, with respect to 10 part by mass of the above-described spore suspension, 2 parts by mass of Alamar Blue fluorescence reagent (product of Wako Pure Chemical Industries, Ltd.) and 8 parts by mass of RPMI1640 medium containing 0.165M of MOPS, which was prepared by dissolving 5.2 g of RPMI1640 (product of Irvine Scientific) and 1.0 g of NaHCO3 in 450 mL of sterile distilled water and thereafter adding 17.12 g of MOPS and stirring, and adjusting the pH value to 7.0 by adding NaOH, and then filling up to 500 mL by adding sterile distilled water. […]
Sixteen hours after the beginning of culturing, the plate was retrieve from the incubator, and the presence of generation (growth) of mycelia in each well (well that had already been fed exclusively by the above-described test drug) used for spore growth inhibition test was evaluated with a microscope. […]

[4] = test system: Aspergillus niger IFO 6341; assay type: cell-based; remark: listed apart in the source
Protocol: as §4
More specifically, a slant or plate medium (“potato dextrose agar” medium manufactured by DIFCO was used typically) adhered with spores (conidia) was prepared in advance, and A. niger (IFO 6341; JIS test strain) were gathered from the medium by scratching the medium surface 4 to 5 times from bottom up with a 1 μL disposable loop and suspended in 25 mL of PBS (free of Mg, Ca) solution containing 0.05% of surfactant (Tween® 80). Thereafter, pipetting was performed using a measuring pipette or the like such that clusters of black spores disappeared completely. The spore concentration of the spore suspension prepared by such method was determined using a hemocytometer while the above-described surfactant containing PBS solution was being diluted accordingly, thereby deriving a spore suspension having a spore concentration of approximately 2.5×10^5 spores/mL.
At the same time, the above-described two polypeptides (samples 1, 3) and benzalkonium chloride serving as a comparison for antimycotic activity were dissolved in 10 mM of HEPES buffer (pH7.0) respectively to prepare stock solutions with a 2.0 mg/mL drug concentration. These were sequentially diluted to prepare various kinds of test drugs with drug (each polypeptide or benzalkonium chloride) concentrations of 400, 200, 100, 50, 25, 5 and 0.5 μg/mL.
A spore germination inhibition test and a spore growth inhibition test were performed using the above-prepared drugs and spore suspension as follows.
First, each of the above-described drugs was fed to the 96-well microplate at 40 μL a time for the spore germination inhibition test. The surplus drugs were stored in a refrigerator (4° C.) to be used for the spore growth inhibition test to be perform at a later date.
Next, a test fungus suspension was prepared by adding, with respect to 10 part by mass of the above-described spore suspension, 2 parts by mass of Alamar Blue fluorescence reagent (product of Wako Pure Chemical Industries, Ltd.) and 8 parts by mass of RPMI1640 medium containing 0.165M of MOPS, which was prepared by dissolving 5.2 g of RPMI1640 (product of Irvine Scientific) and 1.0 g of NaHCO3 in 450 mL of sterile distilled water and thereafter adding 17.12 g of MOPS and stirring, and adjusting the pH value to 7.0 by adding NaOH, and then filling up to 500 mL by adding sterile distilled water. Then, the fungus suspension was fed at 160 μL a time to the wells in which the above-described drugs were added. In addition, empty wells in which no drug was added were also fed at 160 μL a time for spore growth inhibition test. After feeding, it was cultured under a humid environment for 16 hours in an incubator at 30° C.
Twenty-four hours and 48 hours after the beginning of culturing, the colour of the mediums in the wells used for spore germination inhibition test and the wells for spore growth inhibition test were observed. Here, those in which the Alamar Blue included within the medium remain blue (oxidized form) were evaluated as positive of antimicrobial activity positive, and those that are pink (reduced form) were evaluated as negative of antimicrobial activity. Moreover, the smallest drug concentration recognized as oxidized form (blue color) was served as MIC (minimum growth inhibitory concentration) in the spore germination inhibition test and the spore growth inhibition test related to the present example.

[5] = test system: Staphylococcus aureus IFO 12732; assay type: cell-based; settings: IFO 12732, 24 h
Protocol: as §1, §2, §3

Substance	Antimicrobial Activities (MIC) E. coli [1]	Antimicrobial Activities (MIC) against S. aureus, horse serum concentration 10% [2]	MIC against A. niger, spore growth inhibition test after 24 hours ([3]; IFO 6341, 24 h)	MIC against A. niger, spore germination inhibition test after 24 hours ([4]; IFO 6341, 24 h)	MIC against A. niger, spore germination inhibition test after 48 hours ([4]; IFO 6341, 48 h)	Antimicrobial Activities (MIC) S. aureus [5]	MIC against A. niger, spore growth inhibition test after 24 hours ([3]; after 24 hours)	MIC against A. niger, spore germination inhibition test after 24 hours ([4]; after 24 hours)	MIC against A. niger, spore germination inhibition test after 48 hours ([4]; after 48 hours)	antimicrobial activity against E. coli, in words ([1]; comparison stated in text on Table 2)	Antimicrobial Activities (MIC) against S. aureus, horse serum concentration 20% [2]	Antimicrobial Activities (MIC) against S. aureus, horse serum concentration 50% [2]
H-RIRKKLRLMWWML-NH2 [sample 3, RIRKKLRLMWWML-CONH2]	6.3 µM	3.1 µM	100 µg/mL	100 µg/mL	100 µg/mL	3.1 µM	–	–	–	–	–	–
benzalkonium chloride [reference compound]	–	–	–	–	–	–	25 µg/mL	25 µg/mL	25 µg/mL	–	–	–
H-RKKKRKVLMWWMLR-NH2 [sample 1, RKKKRKVLMWWMLR-CONH2]	6.3 µM	3.1 µM	100 µg/mL	50 µg/mL	50 µg/mL	3.1 µM	–	–	–	higher antimicrobial activities	3.1 µM	3.1 µM

— patent US7674771B2, “Antimicrobial peptides and utilization of the same” (Toagosei Co., Ltd, priority 2003, dated 2010)
